Reference: patent US11208423B2, “Pyridinamine-pyridone and pyrimidinamine- pyridone compounds” (Sprint Bioscience AB, priority 2017, dated 2021)

Tests used:
Vps34 enzyme = Vps34 enzyme (Homo sapiens (Human), UniProt Q8NEB9); test: Vps34 Biochemical Assay (Adapta kinase assay); conditions: 20 μM ATP / 200 μM PI:PS substrate mix, 1 h at room temperature, TR-FRET, read-out: Median IC50 nM Adapta
Procedure: Dilution series of compounds of the invention were prepared in DMSO at 100 times the final assay concentration (n1=n0/3 in 10 points). The compounds were further diluted to 4 times the assay concentration in assay buffer (Life technologies buffer Q, PV5125, diluted 5 times supplemented with 2 mM DTT and 2 mM MnCl2). 2.5 μl of the diluted compounds were added to a 384 well assay plate followed by 2.5 μl of 16.5 nM Vps34 enzyme (Life technologies, PV5126). Enzyme and compounds were pre-incubated at rt for 15 min. Then 5 μl of substrate mix containing 20 μM ATP (Life technologies, PV3227) and 200 μM PI:PS substrate (Life technologies, PV5122) in assay buffer was added to the wells containing compound and enzyme. Mixing was performed by pipetting several times. The reaction was incubated at room temperature for 1 h. Then 5 μl stop-detection mix, prepared as described in the Adapta kinase assay kit instructions (Life technologies, PV5099) containing Adapta Eu-anti-ADP antibody (2.3 nM), Alexa Fluor 647 ADP tracer (9 nM) and EDTA (30 mM) in TR-FRET buffer, was added to quench the reaction. Mixing was performed by pipetting several times. The assay plate was then incubated at room temperature for 30 min and read with Artemis micro plate reader. Percent inhibition of the compounds as compared to DMSO treated control samples was calculated. By the use of Dotmatics software compound concentration versus percent inhibition was fitted to generate IC50 values.

[1] = test system: autophagy in HOS cells (GFP-LC3); test: High Content Screening Autophagy Assay (GFP-LC3 foci); type: cell-based; conditions: Homo sapiens; HOS cells expressing GFP-LC3; autophagy activated with KU-0063794 500 nM plus Bafilomycin A1 5 nM; 6 hours; foci area per cell; read-out: Median IC50 (μM) Cellular assay
Procedure: High Content Screening Autophagy Assay
Human osteosarcoma cells (HOS) stably expressing a Green Fluorescent Protein (GFP) tagged LC3 (GFP-LC3) were used to determine the inhibitory effect on autophagy of proprietary compounds. For that purpose, autophagy was activated by using the mTOR inhibitor KU-0063794 at 500 nM in the presence of Bafilomycin A1 (Sigma-Aldrich) at 5 nM. Shortly, cells were plated overnight in clear bottom 96-well plates in DMEM—High Modified media (Hi-Clone Cat #SH30285.01). At the start of the experiment, the media was removed and replaced with fresh media containing the mTOR inhibitor, Bafilomycin A1 and the vehicle or a test compound as indicated. After 6 hours the media was removed, cells were washed twice with ice-cold phosphate buffered saline (PBS) and fixed with 4% paraformaldehyde for 20 minutes at room temperature. Then the cells were washed twice with ice-cold PBS before adding Hoechst 33342 at 1 μg/ml in PBS for nuclear staining. After incubation overnight at 4° C., cells were washed once with PBS to remove the excess of dye and 100 μl of PBS was added to each well. Images were acquired at 20× magnification, 6 images per well, using the ImageXpress automated microscope (Molecular Devices Inc.) and analyzed with MetaXpress software to identify LC3-GFP foci. Foci area per cell values were used to generate dose response curves and IC50 values were calculated using the non-linear fitting analysis in GraphPad Prism software.
The results of the assay are shown in Table 2 (Median IC50 μM HOS-LC3).

Vps34 enzyme, sequence (Q8NEB9 whole entry): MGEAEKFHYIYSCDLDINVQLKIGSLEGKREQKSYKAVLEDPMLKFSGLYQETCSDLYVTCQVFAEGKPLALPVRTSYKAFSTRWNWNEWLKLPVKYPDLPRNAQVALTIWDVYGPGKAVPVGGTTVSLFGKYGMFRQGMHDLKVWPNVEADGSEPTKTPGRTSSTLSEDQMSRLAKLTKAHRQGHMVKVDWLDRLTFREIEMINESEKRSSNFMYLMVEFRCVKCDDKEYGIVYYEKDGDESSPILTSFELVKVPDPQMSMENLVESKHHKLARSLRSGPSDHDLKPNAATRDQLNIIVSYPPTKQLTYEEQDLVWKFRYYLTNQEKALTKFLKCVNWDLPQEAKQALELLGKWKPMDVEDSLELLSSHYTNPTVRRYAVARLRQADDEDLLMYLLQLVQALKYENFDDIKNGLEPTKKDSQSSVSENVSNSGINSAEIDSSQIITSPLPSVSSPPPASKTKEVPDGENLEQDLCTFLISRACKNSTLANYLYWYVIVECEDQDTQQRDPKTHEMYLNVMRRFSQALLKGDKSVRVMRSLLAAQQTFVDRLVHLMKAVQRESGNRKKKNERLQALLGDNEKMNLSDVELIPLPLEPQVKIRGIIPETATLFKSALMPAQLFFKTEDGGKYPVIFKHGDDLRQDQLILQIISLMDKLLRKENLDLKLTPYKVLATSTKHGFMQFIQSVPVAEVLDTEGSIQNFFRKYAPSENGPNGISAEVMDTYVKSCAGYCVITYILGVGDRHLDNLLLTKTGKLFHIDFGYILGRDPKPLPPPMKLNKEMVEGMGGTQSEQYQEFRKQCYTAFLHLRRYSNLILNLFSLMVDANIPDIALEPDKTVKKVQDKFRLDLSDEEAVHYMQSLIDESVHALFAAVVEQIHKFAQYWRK

Row | Compound | IC50 (Vps34 enzyme) [nM] | IC50 [1] [µM]
1 | CCn1cc(-c2cc(-c3ccnc(Nc4ccnc(C)n4)c3)cc(=O)[nH]2)c(C(F)(F)F)n1 [Example 59, 6-[1-Ethyl-3-(trifluoromethyl)pyrazol-4-yl]-4-[2-[(2-methylpyrimidin-4-yl)amino]-4-pyridyl]-1H-pyridin-2-one] | < 5 | 0.005
2 | O=c1cc(-c2ccnc(Nc3ccccc3)n2)cc(N2CCOCC2C(F)(F)F)[nH]1 (stereo not drawn) [Example 27, 4-(2-Anilinopyrimidin-4-yl)-6-[3-(trifluoromethyl)morpholin-4-yl]-1H-pyridin-2-one] | < 5 | 0.02
3 | O=c1cc(-c2ccnc(Nc3ccccc3)n2)cc(-c2ccncc2)[nH]1 [Example 8, 4-(2-Anilinopyrimidin-4-yl)-6-(4-pyridyl)-1H-pyridin-2-one] | 6 | 0.066
4 | Cc1nccc(Nc2cc(-c3cc(-c4cnccc4C)[nH]c(=O)c3)ccn2)n1 [Example 55, 6-(4-Methyl-3-pyridyl)-4-[2-[(2-methylpyrimidin-4-yl)amino]-4-pyridyl]-1H-pyridin-2-one] | < 5 | 0.099
5 | O=c1cc(-c2ccnc(Nc3ccccc3)n2)cc(-c2ccccc2Cl)[nH]1 [Example 4, 4-(2-anilinopyrimidin-4-yl)-6-(2-chlorophenyl)-1H-pyridin-2-one] | < 5 | –
6 | Cc1nccc(Nc2cc(-c3cc(N4CCOCC4C(F)(F)F)[nH]c(=O)c3)ccn2)n1 (stereo not drawn) [Example 26, 4-[2-[(2-Methylpyrimidin-4-yl)amino]-4-pyridyl]-6-[3-(trifluoromethyl)morpholin-4-yl]-1H-pyridin-2-one] | < 5 | 0.01
7 | Cc1nc(Nc2cc(-c3cc(N4CCOCC4C(F)(F)F)[nH]c(=O)c3)ccn2)cs1 (stereo not drawn) [Example 42, 4-[2-[(2-Methylthiazol-4-yl)amino]-4-pyridyl]-6-[3-(trifluoromethyl)morpholin-4-yl]-1H-pyridin-2-one] | 13 | –
8 | Cc1nccc(Nc2cc(-c3cc(-c4cccnc4C(F)(F)F)[nH]c(=O)c3)ccn2)n1 [Example 57, 4-[2-[(2-Methylpyrimidin-4-yl)amino]-4-pyridyl]-6-[2-(trifluoromethyl)-3-pyridyl]-1H-pyridin-2-one] | < 5 | 0.006
9 | Cc1nccc(Nc2cc(-c3cc(N4CCCCC4C(F)(F)F)[nH]c(=O)c3)ccn2)n1 (stereo not drawn) [Example 18, 4-[2-[(2-Methylpyrimidin-4-yl)amino]-4-pyridyl]-6-[2-(trifluoromethyl)-1-piperidyl]-1H-pyridin-2-one] | < 5 | –

Further lines, results first:

Row | IC50 (Vps34 enzyme) [nM] | IC50 [1] [µM] | Compound
10 | < 5 | – | O=c1cc(-c2ccnc(Nc3ccccc3)n2)cc(N2CCCCC2C(F)(F)F)[nH]1 (stereo not drawn) [Example 21, 4-(2-Anilinopyrimidin-4-yl)-6-[2-(trifluoromethyl)-1-piperidyl]-1H-pyridin-2-one]
11 | < 5 | 0.002 | CCS(=O)(=O)N1CCN(c2cc(-c3ccnc(Nc4ccnc(C)n4)c3)cc(=O)[nH]2)C(C(F)(F)F)C1 (stereo not drawn) [Example 39, 6-[4-Ethylsulfonyl-2-(trifluoromethyl)piperazin-1-yl]-4-[2-[(2-methylpyrimidin-4-yl)amino]-4-pyridyl]-1H-pyridin-2-one]
12 | 12 | – | Cn1cnc(Nc2cc(-c3cc(-c4ccccc4C(F)(F)F)[nH]c(=O)c3)ccn2)c1 [Example 62, 4-[2-[(1-Methylimidazol-4-yl)amino]-4-pyridyl]-6-[2-(trifluoromethyl)phenyl]-1H-pyridin-2-one]
13 | < 5 | 0.019 | O=c1cc(-c2ccnc(Nc3ccccc3)n2)cc(N2CCOCC2)[nH]1 [Example 10, 4-(2-anilinopyrimidin-4-yl)-6-morpholino-1H-pyridin-2-one]
14 | < 5 | 0.029 | O=c1cc(-c2ccnc(Nc3ncco3)c2)cc(N2CCOCC2C(F)(F)F)[nH]1 (stereo not drawn) [Example 40, 4-[2-(Oxazol-2-ylamino)-4-pyridyl]-6-[3-(trifluoromethyl)morpholin-4-yl]-1H-pyridin-2-one]
15 | < 5 | – | Cc1nccc(Nc2cc(-c3cc(-c4ccccc4Cl)[nH]c(=O)c3)ccn2)n1 [Example 66, 6-(2-Chlorophenyl)-4-[2-[(2-methylpyrimidin-4-yl)amino]-4-pyridyl]-1H-pyridin-2-one]
16 | 52 | – | Cc1nc(Nc2cc(-c3cc(-c4ccccc4C(F)(F)F)[nH]c(=O)c3)ccn2)cs1 [Example 52, 4-[2-[(2-Methylthiazol-4-yl)amino]-4-pyridyl]-6-[2-(trifluoromethyl)phenyl]-1H-pyridin-2-one]
17 | < 5 | 0.003 | Cc1nccc(Nc2cc(-c3cc(-c4ccccc4C(F)(F)F)[nH]c(=O)c3)ccn2)n1 [Example 47, 4-[2-[(2-Methylpyrimidin-4-yl)amino]-4-pyridyl]-6-[2-(trifluoromethyl)phenyl]-1H-pyridin-2-one]
18 | < 5 | 0.054 | O=c1cc(-c2ccnc(Nc3ccccc3)n2)cc(-c2cccnc2)[nH]1 [Example 6, 4-(2-Anilinopyrimidin-4-yl)-6-(3-pyridyl)-1H-pyridin-2-one]
19 | < 5 | 0.003 | Cc1nccc(Nc2cc(-c3cc(N4CCN(S(=O)(=O)Cc5ccc(F)cc5)CC4C(F)(F)F)[nH]c(=O)c3)ccn2)n1 (stereo not drawn) [Example 33, 6-[4-[(4-Fluorophenyl)methylsulfonyl]-2-(trifluoromethyl)piperazin-1-yl]-4-[2-[(2-methylpyrimidin-4-yl)amino]-4-pyridyl]-1H-pyridin-2-one]
20 | 55 | 0.254 | Cn1nccc1Nc1cc(-c2cc(-c3ccccc3C(F)(F)F)[nH]c(=O)c2)ccn1 [Example 50, 4-[2-[(2-Methylpyrazol-3-yl)amino]-4-pyridyl]-6-[2-(trifluoromethyl)phenyl]-1H-pyridin-2-one]
